The results in this text go back to ChEMBL document CHEMBL4627288, “Recent advances in TRPV4 agonists and antagonists” (Bioorg Med Chem Lett, 2020).

Assay [1] deals with Transient receptor potential cation channel subfamily V member 4 (Mus musculus, UniProt Q9EPK8). The assay is described as follows: Agonist activity at mouse TRPV4.
Assay [2] has as its target T1, Transient receptor potential cation channel subfamily V member 4 (Homo sapiens, UniProt Q9HBA0). The assay is described as follows: Antagonist activity at TRPV4 (unknown origin).
The target in assay [3] is T1, Transient receptor potential cation channel subfamily V member 4. The assay is described as follows: Antagonist activity at human TRPV4.

T1 sequence (Q9HBA0 whole entry): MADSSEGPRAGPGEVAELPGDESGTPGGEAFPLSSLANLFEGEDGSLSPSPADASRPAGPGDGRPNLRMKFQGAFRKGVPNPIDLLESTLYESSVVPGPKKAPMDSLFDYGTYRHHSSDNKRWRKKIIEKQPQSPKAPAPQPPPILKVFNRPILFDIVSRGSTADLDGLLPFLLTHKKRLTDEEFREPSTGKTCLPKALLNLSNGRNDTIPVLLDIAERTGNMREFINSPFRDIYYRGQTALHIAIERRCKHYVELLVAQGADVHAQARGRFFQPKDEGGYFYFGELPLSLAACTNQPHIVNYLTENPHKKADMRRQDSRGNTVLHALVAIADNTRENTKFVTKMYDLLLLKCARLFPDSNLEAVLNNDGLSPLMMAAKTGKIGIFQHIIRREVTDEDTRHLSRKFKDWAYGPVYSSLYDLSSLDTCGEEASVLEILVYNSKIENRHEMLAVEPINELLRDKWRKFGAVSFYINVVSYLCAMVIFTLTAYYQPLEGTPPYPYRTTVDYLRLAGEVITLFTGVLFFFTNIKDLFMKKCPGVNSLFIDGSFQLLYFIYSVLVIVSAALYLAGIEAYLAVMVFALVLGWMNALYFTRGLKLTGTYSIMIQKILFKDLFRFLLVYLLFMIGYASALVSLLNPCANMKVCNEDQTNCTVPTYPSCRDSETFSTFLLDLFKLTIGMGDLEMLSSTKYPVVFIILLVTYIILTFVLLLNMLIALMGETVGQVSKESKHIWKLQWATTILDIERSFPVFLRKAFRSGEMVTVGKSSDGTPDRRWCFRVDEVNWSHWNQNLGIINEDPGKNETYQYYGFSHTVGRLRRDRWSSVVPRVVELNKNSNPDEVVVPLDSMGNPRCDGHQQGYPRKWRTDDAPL
Transient receptor potential cation channel subfamily V member 4 (Mus musculus, UniProt Q9EPK8), sequence (Q9EPK8 whole entry): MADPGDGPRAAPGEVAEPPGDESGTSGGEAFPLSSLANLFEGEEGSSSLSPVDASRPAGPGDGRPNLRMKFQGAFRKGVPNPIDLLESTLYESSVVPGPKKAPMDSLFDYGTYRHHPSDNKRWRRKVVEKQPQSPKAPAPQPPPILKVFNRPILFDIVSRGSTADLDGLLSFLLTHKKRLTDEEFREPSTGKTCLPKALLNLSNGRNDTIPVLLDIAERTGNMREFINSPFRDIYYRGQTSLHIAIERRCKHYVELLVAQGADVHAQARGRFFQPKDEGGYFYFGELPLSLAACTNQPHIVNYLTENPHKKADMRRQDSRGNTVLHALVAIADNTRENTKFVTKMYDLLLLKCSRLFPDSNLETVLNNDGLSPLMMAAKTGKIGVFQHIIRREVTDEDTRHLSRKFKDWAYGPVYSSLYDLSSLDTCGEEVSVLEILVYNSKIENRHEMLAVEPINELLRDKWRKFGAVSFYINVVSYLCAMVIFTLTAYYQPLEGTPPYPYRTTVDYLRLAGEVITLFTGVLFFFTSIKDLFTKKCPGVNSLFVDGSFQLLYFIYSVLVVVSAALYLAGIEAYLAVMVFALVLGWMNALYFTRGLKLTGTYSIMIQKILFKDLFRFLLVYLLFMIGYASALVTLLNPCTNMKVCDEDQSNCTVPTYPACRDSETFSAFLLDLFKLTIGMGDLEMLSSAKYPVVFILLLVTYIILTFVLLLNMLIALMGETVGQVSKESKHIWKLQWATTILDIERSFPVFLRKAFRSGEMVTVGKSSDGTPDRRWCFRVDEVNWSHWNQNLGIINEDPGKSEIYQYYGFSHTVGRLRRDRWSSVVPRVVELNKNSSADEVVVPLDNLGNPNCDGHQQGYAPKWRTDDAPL

The term EC50 denotes the concentration needed to bring the measured effect to its halfway point. Read a high EC50 as a need for much substance. In turn, `CCCCC/C=C\C/C=C\C/C=C\CC1OC1CCCC(=O)O` (stereo unspecified) registered an EC50 in assay [1] of 0.15 µM.

What is called IC50 is the point on the concentration scale where inhibition reaches its midpoint. Higher therefore signals lower potency. With `N#Cc1ccc(OCC2(O)CN(S(=O)(=O)c3ccc(Cl)cc3Cl)C2)cc1F`, in assay [2], the IC50 was 0.004 µM. `O=[N+]([O-])c1cc(Cl)ccc1S(=O)(=O)N1CCN(Cc2ccccc2)CC1` displayed an EC50 in assay [1] of 0.77 µM. As for `C/C=C(\C)[C@H]1C(C)=C[C@H]2C[C@@H](C)C[C@@H](C(=O)O)[C@@H]2[C@@]1(C)C(=O)c1cccnc1`, the IC50 in assay [3] stood at 81.8 µM. On the same count and under the same terms, under `C/C=C/C=C/c1c(CC=C(C)C)cc(CC=C(C)C)c(O)c1CO` stands 70 µM; under `C/C=C/C=C/c1c(CC=C(C)C)cc2c(c1[C@H](Nc1ccccc1C(=O)O)[C@H]1c3c(CC=C(C)C)cc4c(c3[C@@H]3OC(=O)c5ccccc5N3[C@H]1/C=C/C)OC(C)(C)[C@H](O)C4=O)OC(C)(C)[C@@H](O)C2=O` (racemic), 0.0508 µM.
